These are literature values, as cited in patent US20210069214A1, “TOPICAL COMPOSITIONS COMPRISING A CORTICOSTEROID FOR THE TREATMENT OF PSORIASIS IN PEDIATRIC PATIENTS” (priority 2019, published 2021).

Structures are written as SMILES.

The data set has as its system HPA axis. To be noted: topical.

Consider `CCC(=O)O[C@]1(C(=O)CCl)[C@@H](C)C[C@H]2[C@@H]3CCC4=CC(=O)C=C[C@]4(C)[C@@]3(F)[C@@H](O)C[C@@]21C` [Clobetasol propionate, [17-(2′-chloroacetyl)-9-fluoro-11-hydroxy-10,13,16-trimethyl-3-oxo-6,7,8,11,12,14,15,16-octahydrocyclopenta[a]phenanthren-17-yl]propanoate], for which the “dose that suppresses the HPA axis (as low as)” value is reported as 2 grams per day.
